The nature of data set [1]: Pharmacokinetic study of compound 12 formulation in rats. In kind it is in vivo. Conditions: 20 and 60 mg/kg iv, hydrochloride salt in 30% CAPTISOL, over thirty hours, FIG. 14.
The next data set has as its target T1, human EGFR (Homo sapiens, UniProt P00533).
T1 construct: human EGFR (His672-Ala1210); purchased Cell Signaling Technologies; host or cells: baculovirus expression system
The data set is described as follows: HTScan EGF Receptor Kinase Assay. The format is biochemical. As for the experimental part:
The ability of compounds to inhibit receptor kinase (EGFR) activity was assayed using HTScan™ EGF Receptor Kinase Assay Kits (Cell Signaling Technologies, Danvers, Mass.). […] The protein was purified by one-step affinity chromatography using glutathione-agarose.
Immediately transfer enzyme from −80° C. to ice. Allowed enzyme to thaw on ice. […] Returned immediately to ice. […] Incubated reaction plate at room temperature for 30 minutes. […] Added 100 μl/well primary antibody. Incubated at room temperature for 60 minutes. […] Added 100 μl/well diluted antibody. Incubated at room temperature for 30 minutes. […] Incubated at room temperature for 5 minutes.

The test system of data set [2] is HPAC pancreatic cancer cells. The data set is described as follows: HPAC pancreatic cancer xenograft. In kind it is in vivo, mice. Conditions: 120 mg/kg in 30% CAPTISOL (iv/ip) daily vs 50 mg/kg erlotinib (po) or vehicle, FIG. 12A. On the procedure:
(§1) 1-10×10^6 human cancer cells were implanted subcutaneously to the athymic (nu/nu) mice. When the tumors reached about 100 mm^3 in volume, the mice were treated with the compound by tail vein infusion. Routinely 5 groups (8-12 mice per group) are needed for a typical efficacy study, including one negative control, one positive control, and three testing groups for 3 dose levels of the same compound. Usually a 7-7-5 (on-off-on) regimen was used for one typical study. The tumor size was measured with an electronic caliper and body weight measured with a scale twice weekly. The tumors were removed from euthanized mice at the end of the study. One half of each tumor was frozen in dry ice and stored at −80° C. for PK or Western blot analysis. The other half was fixed with formalin. The fixed tissues were processed, embedded in paraffin and sectioned for immunohistochemistry staining.

The conditions of data set [3]: both, Sprague Dawley, rat, in vivo, iv, 8 days.
The test system of data set [4] is HDAC in MDA-MB-468 breast cancer cell line. The data set can be described thus: Ac-H4 / Ac-H3 accumulation in MDA-MB-468 breast cancer cell line (FIG. 2). In kind it is cell-based. Conditions: MDA-MB-468, Ac-H4 and Ac-H3 accumulation.
Another data set has as its system Caki-1. The data set is described as follows: Cell proliferation assay (Table D). The format is cell-based. Conditions: Homo sapiens, Renal carcinoma, read-out: IC50 grading Caki-1.
The nature of data set [5]: Pharmacokinetic study of compound 12 formulation in mice. The format is in vivo. Conditions: hydrochloride salt in 30% CAPTISOL
On the procedure: Drug Preparation and Administration. […] Compound was administered via an intravenous (iv) infusion.
Plasma samples were prepared by protein precipitation. An internal standard was added into plasma samples. […] The supernatant was then injected onto LC/MS/MS.
Tissues were homogenized in 0.8 ml water. An internal standard was added into the tissue homogenates.

The conditions of data set [6]: male, CD-1, mouse, in vivo, iv, 9 days.
Data set [7] has as its system EGFR in MDA-MB-468 breast cancer cell line. The data set is described as follows: EGFR phosphorylation in MDA-MB-468 breast cancer cell line (FIG. 2). The format is cell-based. Conditions: MDA-MB-468, FIG. 2.
A short description of data set [8]: Pharmacokinetic study of compound 12 formulation in mice. The format is in vivo. Conditions: IP Dose 20 mg/kg, hydrochloride salt in 30% CAPTISOL
The test system of data set [9] is HCT-116 (colon) and SKBr3 (breast) cancer cells. The data set can be described thus: Induction of apoptosis, Caspase 3&7 activity (FIG. 4). The format is cell-based. Conditions: 24 hours.
Data set [10] is described as follows: Captisol formulation of compound 12: solubility, pH, dilution, stability.
The conditions of data set [11]: male, CD-1, mouse, in vivo, ip, 7 days.
In data set [12] the test system is various cancer cell lines. The data set is described as follows: Cell proliferation assay, various cancer cell lines (general statements). In kind it is cell-based. Conditions: Table D. As for the experimental part: Cancer cell lines were plated at 5,000 to 10,000 per well in 96-well flatted bottomed plates with various concentration of compounds. The cells were incubated with compounds for 72 hours in the presence of 0.5% of fetal bovine serum. Growth inhibition was accessed by adenosine triphosphate (ATP) content assay using Perkin Elmer ATPlite kit. ATPlite is an ATP monitoring system based on firefly luciferase. Briefly, 25 μl of mammalian cell lysis solution was added to 50 μl of phenol red-free culture medium per well to lyse the cells and stabilize the ATP. 25 μl of substrate solution was then added to the well and subsequently the luminescence was measured.

For a further data set, the system named is HDAC. The data set is described as follows: HDAC fluorimetric assay (HDAC enzymatic activity, HeLa nuclear extract). The format is biochemical. Conditions: HeLa nuclear extract; read-out: HDAC IC50 grading. On the procedure:
HDAC inhibitors were screened using an HDAC fluorimetric assay kit (AK-500, Biomol, Plymouth Meeting, Pa.).
Each assay was setup as follows: Defrosted all kit components and kept on ice until use. […] Prepared dilutions of Trichostatin A (TSA, positive control) and tested compounds in assay buffer (5× of final concentration). Diluted Fluor de Lys™ Substrate in assay buffer to 100 uM (50 fold=2× final). Diluted Fluor de Lys™ developer concentrate 20-fold (e.g. 50 μl plus 950 μl Assay Buffer) in cold assay buffer. Second, diluted the 0.2 mM Trichostatin A 100-fold in the 1× Developer (e.g. 10 μl in 1 ml; final Trichostatin A concentration in the 1× Developer=2 μM; final concentration after addition to HDAC/Substrate reaction=1 μM). Added Assay buffer, diluted trichostatin A or test inhibitor to appropriate wells of the microtiter plate. Added diluted HeLa extract or other HDAC sample to all wells except for negative controls.

For a further data set, the target named is T2, HER2 (Homo sapiens, UniProt P04626).
T2 construct: human HER2 amino acids 679-1255; host or cells: baculovirus in Sf9 insect cells
T2 sequence (P04626 679-1255): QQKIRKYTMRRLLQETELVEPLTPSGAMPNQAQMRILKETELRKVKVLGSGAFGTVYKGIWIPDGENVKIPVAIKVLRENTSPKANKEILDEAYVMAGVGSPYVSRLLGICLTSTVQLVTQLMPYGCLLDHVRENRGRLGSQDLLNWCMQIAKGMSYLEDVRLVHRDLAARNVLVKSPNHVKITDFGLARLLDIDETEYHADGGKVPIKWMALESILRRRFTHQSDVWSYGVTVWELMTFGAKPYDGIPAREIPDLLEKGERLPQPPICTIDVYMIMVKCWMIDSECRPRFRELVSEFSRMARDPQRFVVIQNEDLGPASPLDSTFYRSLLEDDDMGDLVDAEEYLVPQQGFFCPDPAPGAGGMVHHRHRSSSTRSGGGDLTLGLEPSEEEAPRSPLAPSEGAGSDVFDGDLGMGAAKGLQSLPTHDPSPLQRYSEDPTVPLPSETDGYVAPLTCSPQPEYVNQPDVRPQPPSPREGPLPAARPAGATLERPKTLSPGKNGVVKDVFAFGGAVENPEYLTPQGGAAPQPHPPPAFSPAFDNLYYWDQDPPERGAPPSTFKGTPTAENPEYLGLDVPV
The data set can be described thus: Radioisotope assay for HER2. The format is biochemical. Conditions: read-out: HER2/ErB2 IC50 grading. As for the experimental part:
Protocol for Radioisotope Assay for HER2
10 nM HER2 and 0.1 mg/ml polyEY were placed in the reaction buffer and 2 mM MnCl2, 1 μM ATP and 1% DMSO final were added. The reaction mixture was incubated for 2 hours at room temperature.
MW=91.6 kDa. […] Enzyme is in 25 mM Tris-HCl, pH 8.0, 100 mM NaCl, 0.05% Tween-20, 50% glycerol, 10 mM reduced glutathione, and 3 mM DTT.

The test system of another data set is A549 NSCLC Xenograft. The data set is described as follows: A549 NSCLC xenograft model. The format is in vivo, mice. Conditions: FIG. 11B. On the procedure: as §1

Where two headings read alike, the source gives them in different places.

T1 sequence (P00533 672-1210): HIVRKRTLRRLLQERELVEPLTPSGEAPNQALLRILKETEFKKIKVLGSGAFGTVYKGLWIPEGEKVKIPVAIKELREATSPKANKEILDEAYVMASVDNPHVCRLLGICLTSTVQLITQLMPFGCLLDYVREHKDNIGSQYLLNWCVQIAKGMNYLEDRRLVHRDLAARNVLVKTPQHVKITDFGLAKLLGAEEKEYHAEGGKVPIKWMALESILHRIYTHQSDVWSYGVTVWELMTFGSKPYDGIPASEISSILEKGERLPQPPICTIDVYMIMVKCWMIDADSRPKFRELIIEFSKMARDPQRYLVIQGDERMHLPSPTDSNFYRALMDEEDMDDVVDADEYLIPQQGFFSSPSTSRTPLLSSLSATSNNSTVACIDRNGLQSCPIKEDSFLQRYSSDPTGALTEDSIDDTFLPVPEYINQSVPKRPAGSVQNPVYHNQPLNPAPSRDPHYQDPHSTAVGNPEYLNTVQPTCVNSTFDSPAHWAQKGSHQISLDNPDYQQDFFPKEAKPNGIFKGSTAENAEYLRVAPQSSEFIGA

Take `C#Cc1cccc(Nc2ncnc3cc(OC)c(OCCCCCCC(=O)NO)cc23)c1` [Compound 12, 7-(4-(3-ethynylphenylamino)-7-methoxyquinazolin-6-yloxy)-N-hydroxyheptanamide]: the “plasma concentration versus dose” value in [1] was “proportional to the dose”. The “activity in EFGR enzyme assay compared with erlotinib” value on human EGFR (FIG. 1) is given as “more active”. Besides, the “attenuation of tumor growth” value in [2] is “greater attenuation of tumor growth than either erlotinib (po) or vehicle”. Besides, the “dose not resulting in a significant change in body weight” value is “up to 200 mg/kg” in [3], “up to 200 mg/kg” in data set [6] and “up to 100 mg/kg” in data set [11]. Besides, the “histone H3/H4 acetylation accumulation compared with SAHA” value in data set [4] is on record as “improvement”. In addition, the IC50 in the data set with Caki-1 is at most 50 nM. In addition, the “dose proportionality of concentration” value in data set [5] (20 and 60 mg/kg, iv and ip) is “dose proportional when administered intravenously but not intraperitoneally”. For the same compound, the “T ½” value in data set [5] (IP Dose 20 mg/kg, Lung) was 2.2 h; in data set [5] (IV Dose 20 mg/kg, Colon), 1.7 h; in data set [5] (IV Dose 20 mg/kg, Lung), 3.9 h; in [5] (IV Dose 20 mg/kg, Plasma), 0.2 h; in [8] (Plasma) it was 0.26 h. The exposure (AUC) was determined as 5529 ng·h/mL in data set [5] (IV Dose 20 mg/kg, Colon); 1571 ng·h/mL in [5] (IV Dose 20 mg/kg, Lung); 715 ng·h/mL in data set [5] (IV Dose 20 mg/kg, Plasma); 4433 ng·h/mL in data set [8] (Lung); 3751 ng·h/mL in data set [8] (Plasma). Also, the highest concentration (Cmax) came out at 8.5 µM in data set [5] (IV Dose 20 mg/kg, Colon); 15.2 µM in data set [5] (IV Dose 20 mg/kg, Lung); 27.7 µM in data set [5] (IV Dose 20 mg/kg, Plasma); 7.8 µM in [8] (Lung); 8.5 µM in [8] (Plasma). Also, the “half-life in tissue compared with plasma” value in [5] is “greater than that in plasma”. In data set [7], the “inhibition of EGFR phosphorylation compared with Erlotinib” value was “improvement”. Moreover, the “cell apoptosis measured by increased Caspase 3&7 activity, times more” value in [9] is 4-11 times. Also, the stability of solution result in data set [10] (25 mg/ml in 30% Captisol with tartaric acid) is listed as “stable at room temperature”. For the same compound, the “chemically stable and in solution without precipitation after dilution” value in data set [10] (formulations from A (i), diluted with D5W 10-, 20-, and 50-fold) was over 48 h. In data set [10] (formulations from A (ii) citric acid, A (iii) hydrochloric acid, A (iiii) sodium salt, diluted with D5W 10-fold), the “remained in solution without precipitation after dilution” value was over 12 h. For the same compound, the “chemical stability of lyophilisate” value in data set [10] (lyophilisate from A (i) (tartaric acid, 25 mg/ml), −20° C., room temperature, and 40° C.) is reported as “at least 2 weeks”. Moreover, the “storage of lyophilisate without decomposition” value in [10] (lyophilisate from A (i), 4° C.) is listed as “greater than 2 weeks”. Further, in data set [10] (lyophilisate from A (iii) (hydrochloric acid), −20° C.), the stability of lyophilisate result was “at least two weeks”. Further, the “activity in various cancer cell lines compared with Erlotinib and SAHA” value in [12] was “more active than Erlotinib and SAHA”.
With `C#Cc1cccc(Nc2ncnc3ccc(OCCCCCC(=O)NO)cc23)c1` [Compound 23, 6-(4-(3-ethynylphenylamino)quinazolin-6-yloxy)-N-hydroxyhexanamide], the melting point was 176 to 182 °C. Also, the IC50 in the data set with HDAC was under 100 nM.
As to `COc1cc2ncnc(N[C@H](C)c3ccc(F)cc3)c2cc1OCCCCCCC(=O)NO` [Compound 81, (R)-7-(4-(1-(4-fluorophenyl)ethylamino)-7-methoxyquinazolin-6-yloxy)-N-hydroxyheptanamide], the melting point fell in the range of 118.2 to 144.3 °C. Also, in the data set on HDAC, the IC50 was in the range of 100 to 1000 nM.
With `COc1cc2ncnc(NCc3ccc(F)c(Cl)c3)c2cc1OCCCCCCC(=O)NO` [Compound 88, 7-(4-(3-chloro-4-fluorobenzylamino)-7-methoxyquinazolin-6-yloxy)-N-hydroxyheptanamide], the melting point is 143.1 °C (dec.). The IC50 at HER2 lay in the range of 1000 to 10000 nM. For the same compound, the IC50 in the data set with HDAC was under 100 nM.
The compound `O=C(CCNCc1ccc(-c2ccc3ncnc(Nc4ccc(OCc5cccc(F)c5)c(Cl)c4)c3c2)o1)NO` [Compound 174, 3-((5-(4-(3-Chloro-4-(3-fluorobenzyloxy)phenylamino)quinazolin-6-yl)furan-2-yl)methylamino)-N-hydroxypropanamide] returned a melting point of 170 °C. The IC50 with HDAC was over 10000 nM.
For `O=C(CCCCCNCc1ccc(-c2ccc3ncnc(Nc4ccc(OCc5cccc(F)c5)c(Cl)c4)c3c2)o1)NO` [Compound 177, 6-((5-(4-(3-chloro-4-(3-fluorobenzyloxy)phenylamino)quinazolin-6-yl)furan-2-yl)methylamino)-N-hydroxyhexanamide], the melting point came out at 121 °C. For the same compound, the IC50 at human EGFR (read-out: EGFR IC50 grading) was under 100 nM. In addition, the IC50 on HER2 was under 100 nM. Also, the IC50 with HDAC is 100 to 1000 nM.
`O=C(CCCCCCNCc1ccc(-c2ccc3ncnc(Nc4ccc(OCc5cccc(F)c5)c(Cl)c4)c3c2)o1)NO` [Compound 178, 7-((5-(4-(3-chloro-4-(3-fluorobenzyloxy)phenylamino)quinazolin-6-yl)furan-2-yl)methylamino)-N-hydroxyheptanamide] showed a melting point of 120 °C. For the same compound, the IC50 in the data set with HDAC was in the range of 100 to 1000 nM.
On to `C#Cc1cccc(Nc2ncnc3cc(OCCOC)c(OCCOC)cc23)c1` [Erlotinib], for which the “effect on tumor size as compared to control” value in the data set on A549 NSCLC Xenograft was “did not significantly affect tumor size”.

Broadly, the AUC is concentration integrated over time. Usually Cmax stands for the highest concentration seen after dosing. As a reminder, the melting point is the temperature, or range, at which the solid turns liquid.

These data come from US8604044B2, “Quinazoline based EGFR inhibitors containing a zinc binding moiety” (Curis, Inc., priority 2006, dated 2013).
